Reference: patent US10119966B2, “Method of detecting auto-antibodies from patients suffering from rheumatoid arthritis, a peptide and assay kit” (STICHTING VOOR DE TECHNISCHE WETENSCHAPPEN, priority 2001, dated 2018)
Non-standard residues stand in square brackets, D forms with d. No end group written: not given here. Cit = NC(=O)NCCC[C@H](N)C(=O)O

Columns and labels:
Format in all cases: binding, human
[1] = system: sera from control patients and normal donors; assay: ELISA with sera from patients with other diseases and normal sera (specificity); settings: for % positive sera: cyclic peptide; for Specificity [%] cyclic: cyclic variant; for Specificity [%] cyclic / Specificity [%] linear: control patients and normal donors of Table 2; for Specificity [%] linear: linear variant
Description: (§1) The most interesting peptides were synthesised in a slightly larger quantity to form a linear and a cyclic variant, and in most cases in a citrulline and arginine (=control) variant. These peptides were tested for reactivity with a series of sera from RA patients. The peptides were coated to ELISA plates and incubated with sera from RA patients. Each serum was tested in duplicate. Sera from healthy persons were used as negative control.
The above table represents ELISAs with sera obtained from patients suffering from RA and from patients suffering from various other autoimmune diseases. […] The arginine variant of peptide 0002-36 (R on position 0 and +2, i.e., instead of Cit in the formula) was also tested and shown to be negative with all tested RA and normal sera.
(§2) Using the above-described methods, seven XG peptide units were tested for reactivity with the 318 sera mentioned in Table 2 from patients suffering from rheumatoid arthritis. The specificity was determined with the aid of sera mentioned in Table 2 from control patients and normal donors.
(§3) In accordance with the methods described in this document, five XnonG peptide units were tested for reactivity with the same 318 sera mentioned in Table 2 from patients suffering from rheumatoid arthritis. Specificity was again determined with the aid of the sera mentioned in Table 2 from control patients and normal donors.

[2] = system: autoantibodies from patients suffering from rheumatoid arthritis (RA sera); assay: ELISA of coated peptides with sera from RA patients; settings: for Sensitivity [%] cyclic / Sensitivity [%] Linear: 318 RA sera; for Sensitivity [%] Linear: linear variant; for assessment of cyclic variants (in words): cysteine-bromoacetic acid cyclisation
Description: as §1, with “control. […]” for “control.”
as §2, §3

[3] = system: XG-negative sera (RA sera comprising no XG reactive antibodies); assay: ELISA of XnonG peptides with RA sera that do not react with XG peptides; settings: for Sensitivity [%] cyclic: cyclic variant; for Sensitivity [%] cyclic / Sensitivity [%] Linear: 80 of the 318 RA sera that did not react with any XG peptide of Table 6; for Sensitivity [%] Linear: linear variant
Description: as §1
The percentages mentioned in table 8 therefore show the percentage of the sera that did comprise antibodies to XnonG peptide units but comprised no XG reactive antibodies.

[4] = ELISA with 186 RA sera, cyclic variants
[5] = XnonG peptide units, cyclic variant
[6] = XG peptide units, cyclic variant
[7] = two cohorts of RA sera, in total 318 sera

Question: With “0002-36 (cyclic): cyclic variant of peptide 0002-36, cyclisized by the cysteine-bromoacetic acid method (HQFRF[Cit]G[Cit]SRAA; thioether (positions not given here); not fully specified (bridges); printed as H Q F R F Cit G Cit S R A A; also: cyclised by cysteine-bromoacetic acid method, no Cys in given chain, ring places not given here)” as the substance, how does the “% positive sera” value ([1]; Colitis ulcerosa sera, N=40) read?
Answer: Its value is 0%.

Question: What about the “% positive sera” value ([1]; Crohn's disease sera, N=40) of the same substance?
Answer: The value was 0%.

Question: And the “% positive sera” value ([1]; Infectious diseases (malaria, chlamydia, mycoplasma, etc.) sera, N=250)?
Answer: The value was 1%.

Question: What about the “% positive sera” value ([1]; Normal human serum, N=84) of the same substance?
Answer: Its value is 0%.

Question: What about the “% positive sera” value ([1]; Osteoarthritis sera, N=29) of the same substance?
Answer: The value was 0%.

Question: And the “% positive sera” value ([1]; PM, Polymyositis sera, N=11)?
Answer: Its value is 0%.

Question: What about the “% positive sera” value ([1]; Prim Sjögren's syndrome sera, N=34) of the same substance?
Answer: Its value is 3%.

Question: What about the “% positive sera” value ([1]; Psoriasis sera, N=10) of the same substance?
Answer: The value was 0%.

Question: And the “% positive sera” value ([1]; SSc Scleroderma sera, N=10)?
Answer: Its value is 0%.

Question: And the “% positive sera” value ([1]; Systemic Lupus Erythematodes sera, N=24)?
Answer: The value was 0%.

Question: And the “% positive sera” value ([1]; Vasculitis sera, N=30)?
Answer: Its value is 0%.

Question: And the positive sera ([2]; ELISA with 132 RA sera)?
Answer: The positive sera was 71%.

Question: What about the “positive sera (number/total)” value ([2]; ELISA with 132 RA sera) of the same substance?
Answer: The value was 94/132.

Question: And the positive sera [2, 4]?
Answer: The positive sera was 71%.

Question: What about the “% positive sera” value ([2]; RA sera, N=318, cyclic peptide) of the same substance?
Answer: The value was 71%.

Question: How did the positive sera [2, 4] turn out when “0002-63 (cyclic): cyclic variant of peptide 0002-63 (HQFRF[Cit]GWSRAA; thioether (positions not given here); also: cyclised by cysteine-bromoacetyl thioether, Cys and bromoacetyl not shown in chain)” was run?
Answer: Its positive sera is 71%.

Question: With “A R F Q M Cit H Cit R L I R (ARFQM[Cit]H[Cit]RLIR) [0107-35]” as the substance, how does the “Specificity [%] cyclic” value ([1]; XnonG peptide units) read?
Answer: The value was 99%.

Question: What about the “Specificity [%] linear” value ([1]; XnonG peptide units) of the same substance?
Answer: Its value is 98%.

Question: And the “Sensitivity [%] cyclic” value [2, 5]?
Answer: Its value is 61%.

Question: What about the “Sensitivity [%] Linear” value ([2]; XnonG peptide units) of the same substance?
Answer: The value was 52%.

Question: And the “reacts with % of the sera that are not reactive with cyclic 0002-36” value ([3]; cyclic form)?
Answer: Its value is 18%.

Question: What about the “Sensitivity [%] cyclic” value [3] of the same substance?
Answer: The value was 18%.

Question: And the “Sensitivity [%] Linear” value [3]?
Answer: The value was 17%.

Question: What does the source list for “A R F Q M R H Cit R L I R (ARFQMRH[Cit]RLIR) [0113-30]”?
Answer: Specificity [%] cyclic ([1]; XnonG peptide units): 100%; Specificity [%] linear ([1]; XnonG peptide units): 99%; Sensitivity [%] cyclic [2, 5]: 71%; Sensitivity [%] Linear ([2]; XnonG peptide units): 49%; Sensitivity [%] cyclic [3]: 19%; Sensitivity [%] Linear [3]: 18%

Question: What does the source list for G V Y L V R Cit L Cit M M R [0218-36]?
Answer: Specificity [%] cyclic ([1]; XnonG peptide units): 98%; Specificity [%] linear ([1]; XnonG peptide units): 98%; Sensitivity [%] cyclic [2, 5]: 70%; Sensitivity [%] Linear ([2]; XnonG peptide units): 50%; Sensitivity [%] cyclic [3]: 17%; Sensitivity [%] Linear [3]: 17%

Question: With GFFSA[Cit]GHRPLD [0101-7] as the substance, how does the “reacted with % of RA sera” value ([2]; cyclic variant, 186 RA-sera) read?
Answer: The value was 45%.

Question: What about the “reacted with % of the sera” value ([2]; linear peptide) of the same substance?
Answer: The value was 55%.

Question: For “H Q F R F Cit G Cit S R A A (HQFRF[Cit]G[Cit]SRAA) [0002-36 (linear)]”, which positive sera ([2]; ELISA with 132 RA sera) is on record?
Answer: The positive sera was 61%.

Question: What about the “positive sera (number/total)” value ([2]; ELISA with 132 RA sera) of the same substance?
Answer: The value was 80/132.

Question: Which results are given for “H Q F R F Cit G Cit S R A A (HQFRF[Cit]G[Cit]SRAA) [0002-36]”?
Answer: Specificity [%] cyclic ([1]; XG peptide units): 99%; Specificity [%] linear ([1]; XG peptide units): 99%; reactivity with RA sera (in words) [2]: very satisfactory; Sensitivity [%] cyclic [2, 6]: 71%; Sensitivity [%] Linear ([2]; XG peptide units): 61%; assessment of cyclic variants (in words) ([2]; cyclic variants): of interest; OD-values, cyclic versus linear variant [2, 7]: much higher; frequency of reaction, cyclic versus linear variant [2, 7]: react more frequently (and better) than the linear variant

Question: With “H Q K R G Cit G W S R A A (HQKRG[Cit]GWSRAA) [0002-27]” as the substance, how does the “Specificity [%] cyclic” value ([1]; XG peptide units) read?
Answer: The value was 98%.

Question: What about the “Specificity [%] linear” value ([1]; XG peptide units) of the same substance?
Answer: The value was 98%.

Question: What about the “Sensitivity [%] cyclic” value [2, 6] of the same substance?
Answer: Its value is 71%.

Question: And the “Sensitivity [%] Linear” value ([2]; XG peptide units)?
Answer: Its value is 56%.

Question: And the “assessment of cyclic variants (in words)” value ([2]; cyclic variants)?
Answer: Its value is “of interest”.

Question: Which results are given for “H Q K W R Cit G R S Cit A A (HQKWR[Cit]GRS[Cit]AA) [0002-37]”?
Answer: Specificity [%] cyclic ([1]; XG peptide units): 98%; Specificity [%] linear ([1]; XG peptide units): 98%; Sensitivity [%] cyclic [2, 6]: 70%; Sensitivity [%] Linear ([2]; XG peptide units): 60%

Question: How did the “Specificity [%] cyclic” value ([1]; XG peptide units) turn out when “H Q R R T Cit G G S R A A (HQRRT[Cit]GGSRAA) [0002-31]” was run?
Answer: Its value is 98%.

Question: What about the “Specificity [%] linear” value ([1]; XG peptide units) of the same substance?
Answer: Its value is 98%.

Question: And the “Sensitivity [%] cyclic” value [2, 6]?
Answer: Its value is 69%.

Question: What about the “Sensitivity [%] Linear” value ([2]; XG peptide units) of the same substance?
Answer: Its value is 51%.

Question: What about the “assessment of cyclic variants (in words)” value ([2]; cyclic variants) of the same substance?
Answer: Its value is “of interest”.

Question: Which results are given for “H Q R R V Cit G W S R A A (HQRRV[Cit]GWSRAA) [0002-29]”?
Answer: Specificity [%] cyclic ([1]; XG peptide units): 98%; Specificity [%] linear ([1]; XG peptide units): 98%; Sensitivity [%] cyclic [2, 6]: 70%; Sensitivity [%] Linear ([2]; XG peptide units): 57%; assessment of cyclic variants (in words) ([2]; cyclic variants): of interest

Question: What does the source list for HQFRF[Cit]GWSRAA [0002-63]?
Answer: Specificity [%] cyclic ([1]; XG peptide units): 98%; Specificity [%] linear ([1]; XG peptide units): 98%; reactivity with RA sera (in words) [2]: very satisfactory; Sensitivity [%] cyclic [2, 6]: 71%; Sensitivity [%] Linear ([2]; XG peptide units): 60%; assessment of cyclic variants (in words) ([2]; cyclic variants): of interest

Question: How did the “Specificity [%] cyclic” value ([1]; XG peptide units) turn out when HQRKW[Cit]GASRAA [0002-32] was run?
Answer: The value was 98%.

Question: And the “Specificity [%] linear” value ([1]; XG peptide units)?
Answer: The value was 98%.

Question: What about the “Sensitivity [%] cyclic” value [2, 6] of the same substance?
Answer: The value was 71%.

Question: What about the “Sensitivity [%] Linear” value ([2]; XG peptide units) of the same substance?
Answer: Its value is 61%.

Question: Which “reactivity with RA sera (in words)” value [2] does the source give for HQWNR[Cit]GWSRAA [0002-35] here?
Answer: Its value is “very satisfactory”.

Question: With “K P Y T V Cit K F M R R P (KPYTV[Cit]KFMRRP) [0107-32]” as the substance, how does the “Specificity [%] cyclic” value ([1]; XnonG peptide units) read?
Answer: Its value is 98%.

Question: And the “Specificity [%] linear” value ([1]; XnonG peptide units)?
Answer: Its value is 98%.

Question: What about the “Sensitivity [%] cyclic” value [2, 5] of the same substance?
Answer: The value was 63%.

Question: What about the “Sensitivity [%] Linear” value ([2]; XnonG peptide units) of the same substance?
Answer: The value was 48%.

Question: What about the further % added ([3]; cyclic peptide, added to cyclic 0107-35) of the same substance?
Answer: Its further % added is 8%.

Question: And the “Sensitivity [%] cyclic” value [3]?
Answer: Its value is 18%.

Question: What about the “Sensitivity [%] Linear” value [3] of the same substance?
Answer: Its value is 15%.

Question: With “Y S F V W Cit S H A R P R (YSFVW[Cit]SHARPR) [0107-45]” as the substance, how does the “Specificity [%] cyclic” value ([1]; XnonG peptide units) read?
Answer: The value was 99%.

Question: What about the “Specificity [%] linear” value ([1]; XnonG peptide units) of the same substance?
Answer: Its value is 98%.

Question: And the “Sensitivity [%] cyclic” value [2, 5]?
Answer: Its value is 69%.

Question: What about the “Sensitivity [%] Linear” value ([2]; XnonG peptide units) of the same substance?
Answer: The value was 51%.

Question: What about the “Sensitivity [%] cyclic” value [3] of the same substance?
Answer: The value was 18%.

Question: And the “Sensitivity [%] Linear” value [3]?
Answer: The value was 16%.

Question: “arginine variant of peptide 0002-36: R on position 0 and +2, i.e., instead of Cit in the formula; control variant (HQFRFRGRSRAA) [reference compound]” was tested. Which “reactivity with normal sera” value ([1]; all tested normal sera) did it give?
Answer: The value was “negative”.

Question: What about the “reactivity with RA sera” value ([2]; all tested RA sera) of the same substance?
Answer: The value was “negative”.
